Results published in US8361995B2, “Drug comprising at least one gestagen” (Richter Gedeon Nyrt., priority 2007, dated 2013).

Tests used:
[1] = test system: human melanocytes; assay: proliferation of human melanocytes cultured with hormones (cell counting, proliferation and apoptosis tests); assay type: cell-based; conditions: analysed after 9 days
Description: In a series of experiments, the influence of chlormadinone acetate (CMA) on the proliferation or pigment formation of human melanocytes was examined. To this end, human melanocytes were cultured in each case in the corresponding culture medium, which in each case contained different quantities of ethinyl oestradiol (EO), chlormadinone acetate (CMA) or a combination thereof. The individual compositions are summarised below in Table 1. [table] After 9 days the human melanocytes were analysed in vitro. Cell growth and cell death were determined by cell counting by means of Typan blue staining and by commercial cell proliferation and apoptosis tests. Pigment formation was determined both by measuring the melanin concentration of the cells and by measuring tyrosinase, the key enzyme in pigment formation.

[2] = test system: tyrosinase; assay: pigment formation of human melanocytes: tyrosinase activity; assay type: cell-based; conditions: 1 nM as the sole hormone in the culture medium; analysed after 9 days
Description: In a series of experiments, the influence of chlormadinone acetate (CMA) on the proliferation or pigment formation of human melanocytes was examined.
To this end, human melanocytes were cultured in each case in the corresponding culture medium, which in each case contained different quantities of ethinyl oestradiol (EO), chlormadinone acetate (CMA) or a combination thereof. The individual compositions are summarised below in Table 1.
After 9 days the human melanocytes were analysed in vitro. Cell growth and cell death were determined by cell counting by means of Typan blue staining and by commercial cell proliferation and apoptosis tests. Pigment formation was determined both by measuring the melanin concentration of the cells and by measuring tyrosinase, the key enzyme in pigment formation.

| tyrosinase activity of human melanocytes [2] | Compound | reduction of the proliferation rate of human melanocytes ([1]; 100 nM in the culture medium) | proliferation of human melanocytes ([1]; 1 nM as the sole hormone in the culture medium) |
| --- | --- | --- | --- |
|  | CC(=O)O[C@]1(C(C)=O)CC[C@H]2[C@@H]3C=C(Cl)C4=CC(=O)CC[C@]4(C)[C@H]3CC[C@@]21C [chlormadinone acetate] | 50-70% |  |
| increased | C#C[C@]1(O)CC[C@H]2[C@@H]3CCc4cc(O)ccc4[C@H]3CC[C@@]21C [ethinyl oestradiol] |  | increased |
